The results in this text go back to patent US20210401730A1, “USE OF EXTRACTS OF AGAVE FOR A HAIR APPLICATION” (priority 2017, published 2021).

Read-outs that look alike come from different tables or passages of the source.

Test [1] relates to EPCs (circulating endothelial progenitor cells) originating from human umbilical cord blood. Nature of the test: Migration of endothelial progenitor cells through insert membrane. The conditions noted are these: C+ medium + VEGF 10 ng/ml, 5 hours. It is filed as cell-based. As for the experimental part: The study was carried out on EPCs (circulating endothelial progenitor cells) originating from human umbilical cord blood, cultured in EGM-2 medium (Endothelial Growth medium-2).
Before the treatment, the cells are starved in 0.2% EBM-2 medium of fetal calf serum (FCS). The cells are subsequently seeded in an insert containing EGM-2 medium with 0.2% FCS, immersed in a well containing the treatment: either EGM-2 medium 0.2% FCS (negative control), or EGM-2 medium 0.2% FCS plus VEGF at 10 ng/ml (positive control), or EGM-2 medium 0.2% FCS plus the Metlin® or Metlos® inulins at 0.5% or 1%. After 5 hours of incubation, the cells inside the inserts are eliminated and those that have migrated to the other side of the insert membrane are fixed with 4% paraformaldehyde for 10 min. The cells that have migrated are subsequently counted.

For test [2], the system named is human umbilical vein endothelial cells (HUVEC). The experiment in a line: Formation of microtubules (pseudo-tubes) by endothelial cells on matrigel. The conditions noted are these: for Results in % (formation of pseudo-tubes): 6 hours, control medium = 100. It is filed as cell-based. As for the experimental part: In this experiment, the cells are human umbilical vein endothelial cells (HUVEC) cultured in M200 medium (Invitrogen M200500) on matrigel (BD Biosciences 354234) for 6 hours. The cells are either in the medium (control medium) or treated by suramin (negative control) or treated by VEGF (positive control) or treated by Metlin® or Metlos® inulins (at 0.1%). After 6 hours of incubation, the pseudo-tubes formed are observed under the microscope and images are taken at random to be subsequently quantified (total surface of the network) by image analysis.

Take VEGF: in test [1], the “Number of cells (migrated)” value came to 417 and the “Results relative to C−” value is listed as 181%. Further, the Number of branchings in test [2] amounted to 18. In addition, in test [2] (C+ 50 ng/ml), the “Results in % (formation of pseudo-tubes)” value is on record as 140%.
As for `Cc1ccc(C(=O)Nc2ccc(S(=O)(=O)O)c3cc(S(=O)(=O)O)cc(S(=O)(=O)O)c23)cc1NC(=O)c1cccc(NC(=O)Nc2cccc(C(=O)Nc3cc(C(=O)Nc4ccc(S(=O)(=O)O)c5cc(S(=O)(=O)O)cc(S(=O)(=O)O)c45)ccc3C)c2)c1` [Suramin, suramin], the Number of branchings in test [2] (C− 20 μM, 6 hours of incubation) is given as 0. In addition, the “Results in % (formation of pseudo-tubes)” value in test [2] (C− 20 μM) was determined as 0%.
